Test results: patent US7414068B2, “Benzopyran derivatives substituted with secondary amines including tetrazole, method for the preparation thereof and pharmaceutical compositions containing them” (Dongbu Hannong Chemical Co., Ltd., priority 2002, dated 2008)

Key:
isolated rat aorta = assay: Vasodilating effect on blood vessel excised from rats (methoxamine-constricted aorta); details: isolated rat aorta constricted with methoxamine (3 μM); read-out: Concentration for inhibition of constriction induced by methoxamine in rat arota (IC50)
From the text: Rats (350˜450 g, obtained from the Experimental Animal Team of the Korea Research Institute of Chemical Technology) were knocked to be unconscious by hitting the occipital region, sacrificed by cervical dislocation, and underwent thoracotomy. After being quickly removed, the thoracic aorta was deprived of the adipose tissue and cut into aortic rings of 3 mm width. The aorta was lightly rubbed with cotton club soaked in a modified Krebs Henseleit buffer (Physiological salt solution) to remove the inner epithelial layer therefrom. While being hung in an organ bath containing a physiological buffer, the vascular smooth muscle was allowed to equilibrate under a resting tension of 2 g and then, stand for 1 hour at 37° C. for stabilization, supplying a carbogen consisting of 95% O2˜5% CO2.
Thereafter, the vascular smooth muscle was constricted with 10^−5M phenylephrine and washed several times with physiological saline solution. The said procedure was repeated again to ensure the stable reactivity of vascular smooth muscle to repetitive constriction/relaxation.
Thereafter, 3×10^−6 M methoxamine was applied to induce an intensive constriction in the vascular smooth muscle. When the vasoconstriction induced by the methoxamine was reached and maintained to a maximum, test compounds and control material was cumulatively added to the organ bath in concentration of 1, 3, 10 and 30 μM, respectively, to examine the vasodilating effect. Cromakalim, BMS-180448 (the compound of formula 4) and BMS-191095 (the compound of formula 5), known to be the first generation KATP opener with potent vasodilating effect were used as control materials.
The change rate of constriction by the addition of the drugs compared to the maximal constriction induced by methoxamine was calculated to plot a concentration-relaxation response curve. Through a least linear regression analysis, IC50 that the drug concentration at which the vascular tissue is relaxed to 50% extent of the maximal constriction, was obtained for each drug.

cortical neuron cells = assay: Protective effect on iron-induced neuronal cell injury (LDH release); format: cell-based; details: FeSO4 50 μM; for protective effect on neuron cell: Inhibition (%, 30 μM compound addition): LDH reduction vs control; for IC50: LDH
Method: From the brains of 17˜18 day-old embryos, cortical neuron cells were isolated and then, cultured at 37° C. for 7˜9 days in a 5% CO2 incubator. The said cortical cell cultures were washed twice with MEM (Minimum essential medium) to reduce the serum level to 0.2%. […] Then, the compound of the said concentration was pre-treated for 30 min, respectively. For the experiment, test compound was dissolved in DMSO and diluted in a medium. At this time, the final concentration of DMSO was not allowed to exceed 0.1%. For control group, only vehicle was applied.
After the said pre-treatment, FeSO4 was added to the medium for a final concentration to be 50 μM. The medium was cultured in CO2 incubator for 24 hours. During the incubation, lactate dehydrogenase (LDH) was released by iron. The serum level of lactate dehydrogenase released into the medium was measured to assess necrosis of neuronal cell by the oxidative toxicity of iron. The protective effect on neuron cells of the test compounds was evaluated by calculating the LDH reduction rate of treatment-group compared with that of the control group.

[1] = Acute oral toxicity test in rats; details: SD, rat, in vivo, single oral dose, suspended in 0.5% methyl cellulose, read-out: lethal dose (LD50) for oral administration
Method: In this test, six-week old SPF SD rats were used with two rats assigned to each group. Each group was consisted of two rats. The compounds prepared in example 1, 7, 11, 17, 22, 24, 26, 28, 30, 32, 34, 42, 52, 54, 55, 56, 57, 59, 60, 61, 70, 75, 77, 79, 81, 83, 85, and 89 were suspended in 0.5% methyl cellulose, respectively. […] Also, hematological test and biochemical analysis were accomplished. After sacrificing the animals, autopsy was performed for macroscopic observations of the organs and tissues. As a result, there was no significant changes in clinical symptoms, body weight and mortalities. Also in hematology, serum chemistry parameters, macroscopic observation and drug-related changes were not observed.

IC50 (isolated rat aorta) | SMILES | protective effect on neuron cell: Inhibition (%, 30 μM compound addition) (cortical neuron cells; 24 hours) | IC50 (cortical neuron cells; Cortical neurone, 24 h) | IC50 (cortical neuron cells; 24 hours) | LD50 [1]
– | COC(OC)[C@@]1(C)Oc2ccc([N+](=O)[O-])cc2[C@@H](N(Cc2nnn(C)n2)c2ccc(C(F)(F)F)cc2)[C@@H]1O [Example 74, (2S,3S,4R)-6-nitro-4-[N-(4-trifluoromethylphenyl)-N-(2-methyl-2H-tetrazol-5-ylmethyl)amino]-3-hydroxy-2-methyl-2-dimethoxymethyl-3,4-dihydro-2H-1-benzopyran] | 90% | 5.3 µM | – | –
– | COC(OC)[C@]1(C)Oc2ccc([N+](=O)[O-])cc2[C@@H](N(Cc2nnn(C)n2)c2ccc(OC(F)(F)F)cc2)[C@@H]1O [Example 84, (2R,3S,4R)-6-nitro-4-[N-(4-trifluoromethoxyphenyl)-N-(2-methyl-2H-tetrazol-5-ylmethyl)amino]-3-hydroxy-2-methyl-2-dimethoxymethyl-3,4-dihydro-2H-1-benzopyran] | 48% | 5.6 µM | – | –
– | COC(OC)[C@]1(C)Oc2ccc([N+](=O)[O-])cc2[C@H](N(Cc2nnn(C)n2)c2ccc(C(F)(F)F)cc2)[C@H]1O [Example 78, (2R,3R,4S)-6-nitro-4-[N-(4-trifluoromethylphenyl)-N-(2-methyl-2H-tetrazol-5-ylmethyl)amino]-3-hydroxy-2-methyl-2-dimethoxymethyl-3,4-dihydro-2H-1-benzopyran] | 69% | 4.4 µM | – | –
– | COC(OC)[C@]1(C)Oc2ccc(N)cc2[C@H](N(Cc2nnn(C)n2)c2ccc(C(F)(F)F)cc2)[C@H]1O [Example 79, (2R,3R,4S)-6-amino-4-[N-(4-trifluoromethylphenyl)-N-(2-methyl-2H-tetrazol-5-ylmethyl)amino]-3-hydroxy-2-methyl-2-dimethoxymethyl-3,4-dihydro-2H-1-benzopyran] | 107% | < 2 µM | 1.7 µM | > 2000 mg/kg
– | COC(OC)[C@@]1(C)Oc2ccc(N)cc2[C@H](N(Cc2nnn(C)n2)c2ccccc2)[C@H]1O [Example 55, (2S,3R,4S)-6-amino-4-[N-(2-methyl-2H-tetrazol-5-ylmethyl)phenylamino]-3-hydroxy-2-methyl-2-dimethoxymethyl-3,4-dihydro-2H-1-benzopyran] | – | – | – | > 2000 mg/kg
– | COC(OC)[C@]1(C)Oc2ccc([N+](=O)[O-])cc2[C@H](N(Cc2nnn(C)n2)c2ccc(OC(F)(F)F)cc2)[C@H]1O [Example 82, (2R,3R,4S)-6-nitro-4-[N-(4-trifluoromethoxyphenyl)-N-(2-methyl-2H-tetrazol-5-ylmethyl)amino]-3-hydroxy-2-methyl-2-dimethoxymethyl-3,4-dihydro-2H-1-benzopyran] | 69% | < 2 µM | 1.3 µM | –
> 30 µM | COC(OC)[C@@]1(C)Oc2ccc(N)cc2[C@H](N(Cc2nnn(C)n2)c2ccc(O)cc2C)[C@H]1O [Example 65, (2S, 3R,4S)-6-amino-4-[N-(2methyl-4-hydroxyphenyl)-N-(2-methyl-2H-tetrazol-5-ylmethyl)amino]-3-hydroxy-2-methyl-2-dimethoxymethyl-3,4-dihydro-2H-1-benzopyran] | – | – | – | –
27.4 µM | COC(OC)[C@@]1(C)Oc2ccc([N+](=O)[O-])cc2[C@H](N(Cc2nnn(C)n2)c2cccc(Cl)c2)[C@H]1O [Example 25, (2S,3R,4S)-6-nitro-4-[N-(3-chlorophenyl)-N-(2-methyl-2H-tetrazol-5-ylmethyl)amino]-3-hydroxy-2-methyl-2-dimethoxymethyl-3,4-dihydro-2H-1-benzopyran] | 83% | – | – | –
– | COC(OC)[C@@]1(C)Oc2ccc(N)cc2[C@H](N(Cc2nnn(C)n2)c2cc(C)ccc2O)[C@H]1O [Example 71, (2S,3R,4S)-6-amino-4-[N-(2-hydroxy-5-methylphenyl)-N-(2-methyl-2H-tetrazol-5-ylmethyl)amino]-3-hydroxy-2-methyl-2-dimethoxymethyl-3,4-dihydro-2H-1-benzopyran] | 89% | < 1 µM | 0.9 µM | –
0.067 µM | CC1(C)Oc2ccc(C#N)cc2C(N2CCCC2=O)C1O (stereo not drawn) [Cromakalim, reference compound] | – | – | – | –
7.34 µM | COC(OC)[C@@]1(C)Oc2ccc([N+](=O)[O-])c(C)c2[C@@H](N(Cc2nnn(C)n2)c2ccc(Cl)cc2)[C@@H]1O [Example 98, (2S,3S,4R)-6-nitro-5-methyl-4-[N-(4-chlorophenyl)-N-(2-methyl-2H-tetrazol-5-ylmethyl)amino]-3-hydroxy-2-methyl-2-dimethoxymethyl-3,4-dihydro-2H-1-benzopyran] | 85% | 10.5 µM | – | –
– | COC(OC)[C@@]1(C)Oc2ccc([N+](=O)[O-])cc2[C@@H](N(Cc2nnn(C)n2)c2ccc(OC(F)(F)F)cc2)[C@@H]1O [Example 80, (2S,3S,4R)-6-nitro-4-[N-(4-trifluoromethoxyphenyl)-N-(2-methyl-2H-tetrazol-5-ylmethyl)amino]-3-hydroxy-2-methyl-2-dimethoxymethyl-3,4-dihydro-2H-1-benzopyran] | 95% | 5 µM | – | –
– | COC(OC)[C@]1(C)Oc2ccc([N+](=O)[O-])cc2[C@@H](N(Cc2nnn(C)n2)c2ccc(C(F)(F)F)cc2)[C@@H]1O [Example 76, (2R,3S,4R)-6-nitro-4-[N-(4-trifluoromethylphenyl)-N-(2-methyl-2H-tetrazol-5-ylmethyl)amino]-3-hydroxy-2-methyl-2-dimethoxymethyl-3,4-dihydro-2H-1-benzopyran] | 52% | 5.7 µM | – | –
> 30 µM | COC(OC)[C@@]1(C)Oc2ccc(N)cc2[C@@H](N(Cc2nnn(C)n2)c2ccc(Cl)cc2)[C@@H]1O [Example 10, (2S,3S,4R)-6-amino-4-[N-(4-chlorophenyl)-N-(2-methyl-2H-tetrazol-5-ylmethyl)amino]-3-hydroxy-2-methyl-2-dimethoxymethyl-3,4-dihydro-2H-1-benzopyran] | 103% | 2.2 µM | – | –
– | COC(OC)[C@@]1(C)Oc2ccc(N)cc2[C@H](N(Cc2ccccc2)Cc2nnn(C)n2)[C@H]1O [Example 57, (2S,3R,4S)-6-amino-4[N-benzyl-N-(2-methyl-2H-tetrazol-5-ylmethyl)amino]-3-hydroxy-2-methyl-2-dimethoxymethyl-3,4-dihydro-2H-1-benzopyran] | 94% | 3.1 µM | – | > 2000 mg/kg
– | COC[C@]1(C)Oc2ccc([N+](=O)[O-])cc2[C@@H](N(Cc2nnn(C)n2)c2ccc(F)cc2)[C@@H]1O [Example 99, (2S,3S,4R)-6-nitro-4-[N-(4-fluorophenyl)-N-(2-methyl-2H-tetrazol-5-ylmethyl)amino]-3-hydroxy-2-methyl-2-methoxymethyl-3,4-dihydro-2H-1-benzopyran] | 69% | 20.8 µM | – | –
– | COC(OC)[C@@]1(C)Oc2ccc([N+](=O)[O-])cc2[C@H](N(Cc2nnn(C)n2)c2ccc(C(F)(F)F)cc2)[C@H]1O [Example 33, (2S,3R,4S)-6-nitro-4-[N-(4-trifluoromethylphenyl)-N-(2-methyl-2H-tetrazol-5-ylmethyl)amino]-3-hydroxy-2-methyl-2-dimethoxymethyl-3,4-dihydro-2H-1-benzopyran] | 91% | 6 µM | – | –

SMILES | IC50 (isolated rat aorta) | protective effect on neuron cell: Inhibition (%, 30 μM compound addition) (cortical neuron cells; 24 hours) | IC50 (cortical neuron cells; Cortical neurone, 24 h) | IC50 (cortical neuron cells; 24 hours) | LD50 [1]
CC1(C)Oc2ccc(C#N)cc2[C@H](N(Cc2ncc[nH]2)c2ccc(Cl)cc2)[C@H]1O [BMS-191095, reference compound] | 2.14 µM | – | – | – | –
